According to patent publication US5763408A, “Amino acid derivatives and application thereof” (Fuji Photo Film Co., Ltd., priority 1992, dated 1998):

Assays:
B16-BL6 melanoma cells = assay: Experimental metastasis test of B16-BL6 melanoma cells in lung; assay type: in vivo, C57BL/6 female mice; conditions: day 14
Description: Tumor metastasis inhibition activities of the compounds of the present invention were examined.
(§1) A test compound and B16-BL6 melanoma cells, which have strong metastatic property, were mixed in PBS. 0.2 ml of the mixture was intravenously injected to each of C57BL/6 female mice, of which groups each consisted of 5 mice. The mixture injected (0.2 ml) contained 5×10^4 B16-BL6 cells. On the 14th day from the administration, number of melanoma cell colonies was determined and compared with that of control mice, which were administered with PBS.

[1] = system: PRP (polyplatelet rich plasma); assay: Platelet aggregation inhibition activity (ADP-induced aggregation in PRP); assay type: cell-based; conditions: for Platelet aggregation inhibition rate (%): test compound 1 mg/ml in PRP, ADP as inducer, five minutes later
Description: Platelet aggregation inhibition activities of Compounds 1, 2, 3, 4, 5, 6, 7 and 15 were examined.
A test compound was added to PRP (polyplatelet rich plasma, 3×10^8 cells/ml) so that the plasma contained the compound at a concentration of 1 mg/ml and the plasma was added with 10 μl of ADP as an aggregation inducing substance. Five minutes later, aggregation ratio was determined by a chronologic whole blood aggregation ability measuring apparatus to calculate platelet aggregation inhibition ratio.

colon 26/M3.1 cells = assay: Experimental metastasis test of colon 26/M3.1 cells in lung; assay type: in vivo, C57BL/6 female mice; conditions: Table 13, 1000 μg/mouse, day 14, PBS control 148 ± 12
Description: as §1, with “colon 26/M3.1” for “B16-BL6 melanoma”, “4×10^4 colon 26/M3.1” for “5×10^4 B16-BL6”, “of” for “of melanoma cell”, “colonies in lung” for “colonies”
A segment peptide of fibronectin, Gly-Arg-Gly-Asp-Ser (GRGDS), of which tumour metastasis inhibition activities have been known, was used as a comparative sample.

[2] = system: L5178Y-ML25 T-lymphoma cells; assay: Experimental metastasis of L5178Y-ML25 T-lymphoma cells (weights of livers and spleens); assay type: in vivo, CDF1 mice; conditions: day 14, in g (unit assumed); for Weight of spleen (Mean ± SD): PBS 0.23 ± 0.03, no lymphoma cell 0.12 ± 0.02; for Weight of liver (Mean ± SD): PBS 4.18 ± 0.30, no lymphoma cell 1.36 ± 0.02
Description: A test compound and L5178Y-ML25 T-lymphoma cells were mixed in PBS. 0.2 ml of the mixture was intravenously injected to each of CDF1 mice, of which groups each consisted of 5 mice. The mixture injected (0.2 ml) contained 4×10^4 L5178Y-ML25 T-lymphoma cells. On the 14th day from the administration, weights of livers and spleens of mice were determined and compared with those of control mice, which were administered with PBS.

[3] = Table 11, 500 μg/mouse, PBS control 114 ± 28
[4] = Table 4, 500 μg/mouse, PBS control 96 ± 14
[5] = Table 6, 500 μg/mouse, PBS control 103 ± 30
[6] = Table 7, 500 μg/mouse, PBS control 101 ± 28
[7] = Table 5, 1000 μg/mouse, PBS control 118 ± 15

Structure (SMILES) | Number of colonies (Mean ± SD) (B16-BL6 melanoma cells; [3]) | Platelet aggregation inhibition rate (%) [1] | Number of colonies (Mean ± SD) (B16-BL6 melanoma cells; [4]) | Number of colonies (Mean ± SD) (B16-BL6 melanoma cells; [5]) | Number of colonies (Mean ± SD) (B16-BL6 melanoma cells; [6]) | Number of colonies (Mean ± SD) (B16-BL6 melanoma cells; [7]) | further results
N=C(N)NCCCC(NCC(=O)NC(CC(=O)O)C(=O)O)C(=O)O (stereo not shown) [Compound 34] | 51 ± 19 |  |  |  |  |  | 
N=C(N)NCCC[C@@H](NC(=O)CC(=O)N[C@@H](CC(=O)O)C(=O)O)C(=O)O [Compound 2] |  | 53% | 23 ± 9 | 72 ± 15 | 38 ± 16 |  | Number of colonies (Mean ± SD) (B16-BL6 melanoma cells; Table 3, 500 μg/mouse, PBS control 81 ± 23): 39 ± 13; Number of colonies (Mean ± SD) (B16-BL6 melanoma cells; Table 3, 1000 μg/mouse, PBS control 81 ± 23): 3 ± 2
N=C(N)NCCC[C@H](NC(=O)CC(=O)N[C@@H](CC(=O)O)C(=O)N[C@@H](CO)C(=O)O)C(=O)O [Compound 15] |  | 47% |  | 39 ± 17 | 32 ± 8 |  | 
N=C(N)NCCC[C@H](NC(=O)CC(=O)N[C@@H](CC(=O)O)C(=O)O)C(=O)O [Compound 1] |  | 57% | 13 ± 6 | 63 ± 23 | 19 ± 11 | 25 ± 8 | IC50 ([1]; platelet aggregation, PRP, ADP): 2400 µM; Number of colonies (Mean ± SD) (B16-BL6 melanoma cells; Table 2, 1000 μg/mouse i.v. mixed with cells, PBS control 141 ± 16): 46 ± 10; Number of colonies (Mean ± SD) (colon 26/M3.1 cells): 31 ± 26; Weight of spleen (Mean ± SD) ([2]; 100 μg/mouse): 0.18 ± 0.02; Weight of liver (Mean ± SD) ([2]; 100 μg/mouse): 3.09 ± 0.78; Weight of spleen (Mean ± SD) ([2]; 500 μg/mouse): 0.20 ± 0.02; Weight of liver (Mean ± SD) ([2]; 500 μg/mouse): 2.98 ± 0.29; Weight of spleen (Mean ± SD) ([2]; 1000 μg/mouse): 0.14 ± 0.01; Weight of liver (Mean ± SD) ([2]; 1000 μg/mouse): 1.84 ± 0.36
N=C(N)NCCCC(NC(=O)CNC(CC(=O)O)C(=O)O)C(=O)O (stereo not shown) [Compound 35] | 52 ± 14 |  |  |  |  |  | 
N=C(N)NCCCC(NC(=O)CC(=O)NC(CC(=O)O)C(=O)O)C(=O)NCC(=O)O (stereo not shown) [Compound 19] |  |  |  |  |  |  | Number of colonies (Mean ± SD) (B16-BL6 melanoma cells; Table 8, 1000 μg/mouse, PBS control 168 ± 28): 32 ± 8; Number of colonies (Mean ± SD) (B16-BL6 melanoma cells; Table 9, 1000 μg/mouse, PBS control 168 ± 28): 32 ± 8
CNC(=O)C(CCCNC(=N)N)NC(=O)CC(=O)NC(CC(=O)O)C(=O)NC (stereo not shown) [Compound 14] |  |  | 94 ± 26 |  |  | 69 ± 7 | 
N=C(N)NCCCC(NC(=O)C(=O)NC(CC(=O)O)C(=O)O)C(=O)O (stereo not shown) [Compound 33] | 51 ± 18 |  |  |  |  |  | 
CNC(=O)C(CCCNC(=N)N)NC(=O)CC(=O)NC(CC(=O)O)C(=O)O (stereo not shown) [Compound 12] |  |  | 58 ± 20 |  |  | 19 ± 6 | 
CNC(=O)C(CC(=O)O)NC(=O)CC(=O)NC(CCCNC(=N)N)C(=O)O (stereo not shown) [Compound 8] |  |  | 55 ± 12 |  |  | 24 ± 9 | 
